Source: the NIST ThermoML archive (doi:10.1016/j.jct.2006.03.021)
Numbers after ± are expanded uncertainties.

Assay: molar heat capacity at constant pressure
Conditions: 101.33 kPa, Crystal, Vacuum adiabatic calorimetry

O.OC[C@H]1O[C@@H](O[C@H]2O[C@H](CO)[C@@H](O)[C@H](O)[C@H]2O)[C@H](O)[C@@H](O)[C@@H]1O [α,β-trehalose monohydrate]
Conditions | molar heat capacity at constant pressure [J/K/mol]
12.15 K | 6.701 ± 0.059
12.87 K | 6.35 ± 0.056
13.89 K | 7.774 ± 0.072
15 K | 9.56 ± 0.09
15.06 K | 9.688 ± 0.086
16.13 K | 11.54 ± 0.098
17.15 K | 13.35 ± 0.11
18.14 K | 15.21 ± 0.12
19.1 K | 17.06 ± 0.13
20 K | 18.85 ± 0.15
20.02 K | 18.86 ± 0.14
20.99 K | 20.81 ± 0.16
21.98 K | 22.87 ± 0.17
22.97 K | 24.93 ± 0.18
23.99 K | 27.06 ± 0.19
25.09 K | 29.37 ± 0.21
26.28 K | 31.89 ± 0.22
27.52 K | 34.52 ± 0.23
28.79 K | 37.22 ± 0.25
30 K | 39.76 ± 0.26
30.14 K | 40.07 ± 0.26
31.48 K | 42.93 ± 0.28
32.83 K | 45.73 ± 0.29
34.23 K | 48.62 ± 0.31
35.64 K | 51.52 ± 0.33
37.04 K | 54.43 ± 0.35
38.44 K | 57.19 ± 0.36
39.85 K | 59.97 ± 0.38
40 K | 60.3 ± 0.38
41.25 K | 62.71 ± 0.4
42.67 K | 65.48 ± 0.41
44.14 K | 68.28 ± 0.43
45.66 K | 71.1 ± 0.45
47.22 K | 74 ± 0.47
48.83 K | 76.91 ± 0.48
50 K | 78.98 ± 0.5
50.46 K | 79.86 ± 0.5
52.14 K | 82.8 ± 0.52
53.84 K | 85.77 ± 0.54
55.55 K | 88.73 ± 0.56
56.47 K | 90.18 ± 0.56
58.33 K | 93.36 ± 0.58
60 K | 96.14 ± 0.6
60.17 K | 96.48 ± 0.6
62 K | 99.53 ± 0.62
63.81 K | 102.56 ± 0.64
65.62 K | 105.58 ± 0.66
67.43 K | 108.53 ± 0.68
69.25 K | 111.51 ± 0.7
70 K | 112.73 ± 0.7
71.08 K | 114.46 ± 0.71
72.92 K | 117.44 ± 0.73
74.76 K | 120.43 ± 0.75
76.6 K | 123.41 ± 0.77
78.42 K | 126.41 ± 0.79
80 K | 128.94 ± 0.8
80.24 K | 129.3 ± 0.8
82.05 K | 132.24 ± 0.82
83.88 K | 135.15 ± 0.84
85.74 K | 138.11 ± 0.86
87.62 K | 141.12 ± 0.88
89.52 K | 144.11 ± 0.9
90 K | 144.87 ± 0.9
91.42 K | 147.15 ± 0.92
93.33 K | 150.17 ± 0.93
95.28 K | 153.24 ± 0.95
97.28 K | 156.4 ± 0.97
99.29 K | 159.5 ± 0.99
100 K | 160.59 ± 0.41
101.26 K | 162.58 ± 0.42
103.21 K | 165.61 ± 0.42
105.12 K | 168.61 ± 0.43
107.01 K | 171.53 ± 0.43
108.87 K | 174.41 ± 0.44
110 K | 176.15 ± 0.44
110.71 K | 177.24 ± 0.44
112.52 K | 180.05 ± 0.45
114.31 K | 182.82 ± 0.46
116.08 K | 185.5 ± 0.46
117.84 K | 188.16 ± 0.47
119.57 K | 190.8 ± 0.47
120 K | 191.54 ± 0.47
121.29 K | 193.41 ± 0.48
122.99 K | 196.08 ± 0.48
124.68 K | 198.72 ± 0.49
126.4 K | 201.25 ± 0.49
128.14 K | 203.9 ± 0.5
129.89 K | 206.59 ± 0.5
130 K | 206.76 ± 0.5
131.7 K | 209.4 ± 0.51
133.54 K | 212.03 ± 0.52
135.4 K | 214.95 ± 0.52
137.31 K | 217.83 ± 0.53
139.29 K | 220.87 ± 0.53
140 K | 221.8 ± 0.54
141.32 K | 223.89 ± 0.54
143.36 K | 226.95 ± 0.55
145.42 K | 229.87 ± 0.55
147.49 K | 232.93 ± 0.56
149.55 K | 235.92 ± 0.56
150 K | 236.64 ± 0.57
151.6 K | 238.94 ± 0.57
153.65 K | 242.05 ± 0.58
155.7 K | 244.94 ± 0.58
157.76 K | 248.08 ± 0.59
159.82 K | 250.99 ± 0.6
160 K | 251.27 ± 0.6
161.88 K | 253.84 ± 0.6
163.94 K | 256.98 ± 0.61
166.01 K | 260.01 ± 0.61
168.09 K | 262.9 ± 0.62
170 K | 265.74 ± 0.63
170.15 K | 265.9 ± 0.63
172.2 K | 268.93 ± 0.63
174.23 K | 271.83 ± 0.64
176.25 K | 274.9 ± 0.64
178.26 K | 277.71 ± 0.65
180 K | 280.12 ± 0.66
180.26 K | 280.35 ± 0.66
182.24 K | 283.42 ± 0.66
184.22 K | 286.13 ± 0.67
186.18 K | 288.99 ± 0.67
188.13 K | 291.83 ± 0.68
190 K | 294.51 ± 0.69
190.07 K | 294.5 ± 0.69
191.99 K | 297.33 ± 0.69
193.92 K | 300.26 ± 0.7
195.86 K | 302.94 ± 0.7
197.82 K | 305.58 ± 0.71
199.78 K | 308.6 ± 0.71
200 K | 308.94 ± 0.72
201.75 K | 311.51 ± 0.72
203.73 K | 314.35 ± 0.73
205.72 K | 317.15 ± 0.73
207.72 K | 320.03 ± 0.74
209.73 K | 323.23 ± 0.75
210 K | 323.42 ± 0.75
211.76 K | 326.07 ± 0.75
213.79 K | 328.83 ± 0.76
215.82 K | 331.74 ± 0.76
217.85 K | 335.14 ± 0.77
219.89 K | 337.71 ± 0.78
220 K | 337.95 ± 0.78
221.94 K | 340.79 ± 0.78
223.97 K | 343.7 ± 0.79
226.01 K | 346.53 ± 0.79
228.06 K | 349.68 ± 0.8
230 K | 352.54 ± 0.81
230.09 K | 352.7 ± 0.81
232.12 K | 355.67 ± 0.81
234.16 K | 358.66 ± 0.82
236.2 K | 361.46 ± 0.83
238.24 K | 364.57 ± 0.83
240 K | 367.19 ± 0.84
240.3 K | 367.64 ± 0.84
242.38 K | 370.71 ± 0.84
244.44 K | 373.64 ± 0.85
246.49 K | 376.59 ± 0.86
248.54 K | 379.8 ± 0.86
250 K | 381.89 ± 0.87
250.58 K | 382.78 ± 0.87
252.6 K | 385.78 ± 0.88
254.62 K | 388.6 ± 0.88
256.63 K | 391.62 ± 0.89
258.63 K | 394.61 ± 0.89
260 K | 396.69 ± 0.9
260.63 K | 397.5 ± 0.9
262.91 K | 400.41 ± 0.91
264.59 K | 403.48 ± 0.91
266.56 K | 406.35 ± 0.92
268.52 K | 409.35 ± 0.93
270 K | 411.55 ± 0.93
270.48 K | 412.29 ± 0.93
272.46 K | 415.5 ± 0.94
274.46 K | 418.09 ± 0.94
276.47 K | 421.07 ± 0.95
278.49 K | 424.17 ± 0.96
280 K | 426.56 ± 0.96
280.52 K | 427.38 ± 0.96
282.54 K | 430.46 ± 0.97
284.56 K | 433.56 ± 0.98
286.58 K | 436.49 ± 0.98
288.58 K | 439.62 ± 0.99
290 K | 441.71 ± 0.99
290.63 K | 443 ± 1
292.65 K | 445.73 ± 1
294.68 K | 448.7 ± 1
296.7 K | 451.81 ± 1
298.15 K | 454.11 ± 1
298.72 K | 454.95 ± 1
300 K | 456.92 ± 1
300.74 K | 457.97 ± 1
